For one data set, the target named is ovine COX-1 (Ovis aries (Sheep), UniProt P05979). The data set is described as follows: colorimetric COX (ovine) inhibitor screening assay kit. The data set is classed as biochemical. The note with it: for IC50: ovine COX-1; for inhibition at 50 µM: read-out: COX-1 [% inhibition at 50 μM], ovine COX-1, 50 μM. The method, then: (§1) Enzyme inhibition was determined using a colorimetric COX (ovine) inhibitor screening assay kit (Cayman Chemicals, Ann Arbor, MI, USA) following the manufacturer's instructions. Stock solutions of test compounds were dissolved in a minimum volume of DMSO.
Chain of ovine COX-1 (P05979 25-600): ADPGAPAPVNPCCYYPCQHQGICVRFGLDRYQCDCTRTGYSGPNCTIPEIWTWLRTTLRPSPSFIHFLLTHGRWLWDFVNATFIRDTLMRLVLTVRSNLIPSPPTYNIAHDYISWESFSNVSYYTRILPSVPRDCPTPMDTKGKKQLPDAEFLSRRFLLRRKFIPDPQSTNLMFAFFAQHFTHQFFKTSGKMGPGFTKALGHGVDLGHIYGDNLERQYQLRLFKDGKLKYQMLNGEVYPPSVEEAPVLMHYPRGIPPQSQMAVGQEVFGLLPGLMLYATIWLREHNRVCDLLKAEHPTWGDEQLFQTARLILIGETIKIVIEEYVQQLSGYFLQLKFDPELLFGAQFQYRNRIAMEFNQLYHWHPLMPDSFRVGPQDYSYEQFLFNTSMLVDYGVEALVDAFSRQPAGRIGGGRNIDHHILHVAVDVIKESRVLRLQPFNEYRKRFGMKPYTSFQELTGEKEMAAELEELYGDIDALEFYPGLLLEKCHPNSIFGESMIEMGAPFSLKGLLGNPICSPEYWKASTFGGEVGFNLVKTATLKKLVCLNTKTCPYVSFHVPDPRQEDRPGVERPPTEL

A further data set deals with ovine COX-2 (Ovis aries (Sheep), UniProt P79208). Described as above. The data set is classed as biochemical. The note with it: for IC50: ovine COX-2; for inhibition at 50 µM: read-out: COX-2 [% inhibition at 50 μM], ovine COX-2, 50 μM. The method, then: as §1
Chain of ovine COX-2 (P79208 17-603): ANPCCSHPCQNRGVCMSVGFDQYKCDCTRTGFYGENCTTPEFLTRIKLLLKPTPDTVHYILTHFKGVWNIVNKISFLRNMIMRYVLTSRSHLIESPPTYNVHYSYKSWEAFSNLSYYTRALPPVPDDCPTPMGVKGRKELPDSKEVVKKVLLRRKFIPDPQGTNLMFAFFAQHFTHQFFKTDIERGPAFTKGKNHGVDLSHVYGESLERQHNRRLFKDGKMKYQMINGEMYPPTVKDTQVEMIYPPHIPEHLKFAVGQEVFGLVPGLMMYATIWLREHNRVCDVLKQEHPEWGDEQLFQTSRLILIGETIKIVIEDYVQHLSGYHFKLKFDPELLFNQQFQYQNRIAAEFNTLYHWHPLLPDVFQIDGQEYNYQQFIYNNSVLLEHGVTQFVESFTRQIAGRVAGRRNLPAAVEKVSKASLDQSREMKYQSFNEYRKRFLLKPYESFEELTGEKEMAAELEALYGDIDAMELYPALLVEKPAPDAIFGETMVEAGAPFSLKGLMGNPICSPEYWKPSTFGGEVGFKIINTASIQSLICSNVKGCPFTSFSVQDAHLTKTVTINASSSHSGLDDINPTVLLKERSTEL
The next data set addresses COX-2 (Homo sapiens, UniProt P35354). In words: colorimetric COX Inhibitor screening Assay (peroxidase component, oxidized TMPD at 590 nm). The data set is classed as biochemical. The note with it: for inhibition at 50 µM: the highest concentration tested; for IC50: human cyclooxygenase. The method, then: Human cyclooxygenase inhibitory activity was determined by a colorimetric COX Inhibitor screening Assay which measures the peroxidase component of the cyclooxygenases, monitoring the appearance of oxidized N,N,N′,N′-tetramethyl-p-phenylenediamine (TMPD) at 590 nm.

The next data set has as its system GLUT-1. The data set is described as follows: Caco-2 monolayer efflux assay, Apparent Permeability (Papp), with or without GLUT-1 inhibitor phloretin. The data set is classed as in vitro ADME, Human. Conditions: human. The method, then: (§2) In a monolayer efflux assay, the Apparent Permeability (Papp) in both basolateral to apical [Papp(B→A)] and apical to basolateral [Papp(A→B)] directions was determined for each compound (FIG. 2). Human colonic adenocarcinoma cell line (Caco-2) presents a facilitated transport system at the apical and basolateral surface. Caco-2 cells express high levels of GLUT-1 that are localized to the basolateral membrane and transport glucose to the serosal side.
(§3) The Papp(B→A) flux of each compound alone or in the presence of phloretin, a GLUT-1 inhibitor, has been determined. Since GLUT-1 is express in the basolateral compartment a high B→A flux means that the transport is GLUT-1 mediated because B→A flux represents the active transport.
(§4) A→B flux, which represents the passive transport, has also been determined for each compound (Table 2).

In another data set the test system is Caco-2 cells. The data set is described as above. The data set is classed as in vitro ADME, Human. The note with it: for Papp B → A, Phloretin: in the presence of 100 mM Phloretin; for reduction of the basolateral to apical flux (Papp B→A) in the presence of phloretin: phloretin vs alone. The method, then: as §2, §3, §4
Assay in data set [1]: as above
The data set is classed as in vitro ADME, Human. The note with it: human, compound alone. The procedure:
as §2, §3, §4

Read-outs that look alike come from different tables or passages of the source.

Chain of COX-2 (P35354 18-604 limits assumed): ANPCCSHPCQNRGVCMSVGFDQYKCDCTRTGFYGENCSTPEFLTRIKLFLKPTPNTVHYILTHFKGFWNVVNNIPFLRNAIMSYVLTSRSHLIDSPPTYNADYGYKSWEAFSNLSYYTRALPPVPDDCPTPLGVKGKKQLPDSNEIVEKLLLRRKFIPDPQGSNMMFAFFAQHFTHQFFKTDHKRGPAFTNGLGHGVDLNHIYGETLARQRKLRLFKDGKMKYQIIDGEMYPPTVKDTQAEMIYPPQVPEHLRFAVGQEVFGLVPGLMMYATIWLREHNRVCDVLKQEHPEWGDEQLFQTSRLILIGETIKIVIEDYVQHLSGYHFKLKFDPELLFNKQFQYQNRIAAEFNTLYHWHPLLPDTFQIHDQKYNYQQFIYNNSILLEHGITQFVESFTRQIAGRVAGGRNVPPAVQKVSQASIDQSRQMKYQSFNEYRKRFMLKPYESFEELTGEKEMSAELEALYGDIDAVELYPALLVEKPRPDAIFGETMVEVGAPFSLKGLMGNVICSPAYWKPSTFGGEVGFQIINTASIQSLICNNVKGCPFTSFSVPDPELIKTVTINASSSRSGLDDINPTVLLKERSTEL

For the compound `CCCCC/C=C\C/C=C\C/C=C\C/C=C\CCCC(=O)NCCCCNC(=O)Cc1onc(-c2ccc(OC)cc2)c1-c1ccc(OC)cc1`, at ovine COX-1, half-maximal inhibition (IC50) was put at 16000 nM and the inhibition at 50 µM came out at 57%. Also, on ovine COX-2, the midpoint of inhibition, the IC50, lay at 800 nM and the inhibition at 50 µM worked out at 61%.
The like results for `COc1ccc(-c2noc(CC(=O)NCCNC(=O)Cc3onc(-c4ccc(OC)cc4)c3-c3ccc(OC)cc3)c2-c2ccc(OC)cc2)cc1` [drawing 61] were, in that order, 13 nM, 75%, 120 nM and 45%.
Compound `COc1ccc(-c2noc(CC(=O)NCCCCNC(=O)Cc3onc(-c4ccc(OC)cc4)c3-c3ccc(OC)cc3)c2-c2ccc(OC)cc2)cc1` [Compound 11, N-(4-(2-(3,4-Bis(4-methoxyphenyl)isoxazol-5-yl)acetamido)butyl)-3,4-bis(4-methoxyphenyl)isoxazole-5-carboxyamide] had a melting point of 163 to 166 °C.
Regarding `COc1ccc(-c2noc(CC(=O)OCC3OC(O)C(O)C(O)C3O)c2-c2ccc(OC)cc2)cc1` (stereo not drawn) [drawing 44], at ovine COX-1, the 50% inhibitory concentration (IC50) worked out at 100 nM and the inhibition at 50 µM was found to be 100%. At ovine COX-2, the 50% inhibitory concentration (IC50) is 700 nM and the inhibition at 50 µM amounted to 87%.
`COc1ccc(-c2noc(CC(=O)NCC(=O)O)c2-c2ccc(OC)cc2)cc1`: the inhibition at 50 µM on ovine COX-1 worked out at 23%; at ovine COX-2 it was 17%.
On to `COc1ccc(-c2noc(CC(=O)NCCCCCCNC(=O)Cc3onc(-c4ccc(OC)cc4)c3-c3ccc(OC)cc3)c2-c2ccc(OC)cc2)cc1`, for which, at ovine COX-1, the concentration for half-maximal inhibition (IC50) is 9000 nM and the inhibition at 50 µM came out at 50%. For the same compound, at ovine COX-2, the half-inhibitory concentration (IC50) is above 50000 nM and the inhibition at 50 µM was 22%.
Regarding `COc1ccc(-c2noc(CC(=O)NCCCCNC(=O)Cc3onc(-c4ccc(OC)cc4)c3-c3ccc(OC)cc3)c2-c2ccc(OC)cc2)cc1` [drawing 64], on ovine COX-1, the half-maximal inhibitory concentration (IC50) is 5500 nM and the inhibition at 50 µM was determined as 74%. Moreover, the IC50 at ovine COX-2 was above 50000 nM.
`COC(=O)CNC(=O)Cc1onc(-c2ccc(OC)cc2)c1-c1ccc(OC)cc1`: at ovine COX-1, inhibition was half-maximal at 70 nM (IC50) and the inhibition at 50 µM stood at 95%. Besides, at ovine COX-2, the IC50 was found to be 4400 nM and the inhibition at 50 µM stood at 80%.
Regarding `COc1ccc(-c2noc(CC(=O)NCc3ccc(CNC(=O)Cc4onc(-c5ccc(OC)cc5)c4-c4ccc(OC)cc4)cc3)c2-c2ccc(OC)cc2)cc1`, the IC50 on ovine COX-1 and at ovine COX-2 was above 50000 nM throughout.
`COc1ccc(-c2noc(CC(=O)NCCCCCCCCCCC(=O)OCC3OC(O)C(O)C(O)C3O)c2-c2ccc(OC)cc2)cc1` [GALMOF11, [(2S,3R,4S,6R)-3,4,5,6-tetrahydroxytetrahydro-2H-pyran-2-yl-]mhetyl 11-{2-[3,4-bis(4-methoxyphenyl)isoxazol-5-yl-]acetamido}undecanoate] showed an inhibition at 50 µM at COX-2 of 64%. Also, the IC50 on COX-2 is 270 nM. The apical-to-basolateral permeability (Papp A→B) amounted to 29.2 ×10⁻⁶ cm/s in the data set on GLUT-1 (compound alone, read-out: Papp A → B) and 29.2 ×10⁻⁶ cm/s in the data set on GLUT-1 (with phloretin (GLUT-1 inhibitor), in Phloretin, read-out: Papp A → B, Phloretin). The Papp B→A in the data set with GLUT-1 (compound alone, read-out: Papp B → A) is 77.2 ×10⁻⁶ cm/s; in the data set with GLUT-1 (with phloretin (GLUT-1 inhibitor), in Phloretin, read-out: Papp B → A, Phloretin), 62.2 ×10⁻⁶ cm/s; with Caco-2 cells (compound alone), 77.2 ×10⁻⁶ cm/s. In addition, the “Papp B → A, Phloretin” value with Caco-2 cells worked out at 62.2 ×10⁻⁶ cm/s. Further, in the data set with Caco-2 cells, the “reduction of the basolateral to apical flux (Papp B→A) in the presence of phloretin” value is reported as 20%.
Turning to `CCCCCCCCC(CCCNC(=O)Cc1onc(-c2ccc(OC)cc2)c1-c1ccc(OC)cc1)NC(=O)Cc1onc(-c2ccc(OC)cc2)c1-c1ccc(OC)cc1` (stereo not drawn) [Compound 13, N-(4-(2-(3,4-Bis(4-methoxyphenyl)isoxazol-5-yl)acetamido)dodecyl)-3,4-bis(4-methoxyphenyl)isoxazole-5-carboxyamide], the melting point is 134 to 138 °C.
Still for that read-out and setting: next, `COc1ccc(-c2noc(CC(=O)Nc3ccc(NC(=O)Cc4onc(-c5ccc(OC)cc5)c4-c4ccc(OC)cc4)cc3)c2-c2ccc(OC)cc2)cc1` [Compound 14]: 178 to 182 °C.
For `COc1ccc(-c2noc(CC(=O)NCCCCC(=O)OC[C@H]3OC(O)[C@H](O)[C@@H](O)[C@H]3O)c2-c2ccc(OC)cc2)cc1` (mixture of isomers) [GALMOF5, 6-O-(5-{2-[3,4-bis(4-methoxyphenyl)isoxazol-5-yl]acetamido}pentanoyl)-D-galactopyranose], on COX-2, the inhibition at 50 µM came to 24% and the half-inhibitory concentration (IC50) is above 50000 nM. For the same compound, the Papp A→B in the data set with GLUT-1 (with phloretin 100 mM (GLUT-1 inhibitor), in the presence of 100 mM Phloretin, read-out: Papp A → B, Phloretin) came out at 32.1 ×10⁻⁶ cm/s. Also, the Papp B→A in the data set on GLUT-1 (with phloretin 100 mM (GLUT-1 inhibitor), in the presence of 100 mM Phloretin, read-out: Papp B → A, Phloretin) amounted to 47.2 ×10⁻⁶ cm/s. Also, in data set [1], the Papp A→B was 32.1 ×10⁻⁶ cm/s and the apparent permeability from basolateral to apical (Papp B→A) is 74.9 ×10⁻⁶ cm/s. In the data set with Caco-2 cells, the “Papp B → A, Phloretin” value turned out to be 47.2 ×10⁻⁶ cm/s.
Regarding `COc1ccc(-c2noc(CC(=O)Nc3ccc(-c4ccc(NC(=O)Cc5onc(-c6ccc(OC)cc6)c5-c5ccc(OC)cc5)cc4)cc3)c2-c2ccc(OC)cc2)cc1` [drawing 66], the concentration for half-maximal inhibition (IC50) was 80 nM at ovine COX-1 and above 50000 nM at ovine COX-2. In addition, at ovine COX-1, the inhibition at 50 µM stood at 73%.
In turn, `CCC(CCCNC(=O)Cc1onc(-c2ccc(OC)cc2)c1-c1ccc(OC)cc1)NC(=O)Cc1onc(-c2ccc(OC)cc2)c1-c1ccc(OC)cc1` (stereo not drawn) [Compound 12, N-(4-(2-(3,4-Bis(4-methoxyphenyl)isoxazol-5-yl)acetamido)hexyl)-3,4-bis(4-methoxyphenyl)isoxazole-5-carboxyamide] yielded a melting point of 159 to 161 °C.
For the compound `COc1ccc(-c2noc(CC(=O)Nc3ccc(NC(=O)Cc4onc(-c5ccc(OC)cc5)c4-c4ccc(OC)cc4)cc3)c2-c2ccc(OC)cc2)cc1` [drawing 65], the IC50 on ovine COX-1 is 150 nM; against ovine COX-2, above 50000 nM. In addition, the inhibition at 50 µM on ovine COX-1 was found to be 85%.
`COc1ccc(-c2noc(CC(=O)Nc3ccc(-c4ccc(NC(=O)Cc5onc(-c6ccc(OC)cc6)c5-c5ccc(OC)cc5)cc4)cc3)c2-c2ccc(OC)cc2)cc1` [Compound 16, N,N′-(Biphenyl-4,4′-di-yl)bis(2-(3,4-bis(4-methoxyphenyl)isoxazol-5-yl)acetamide)] came in with a melting point of 240 to 243 °C.
As to `COc1ccc(-c2noc(CC(=O)O)c2-c2ccc(OC)cc2)cc1` [drawing 42, reference compound], the inhibition at 50 µM on ovine COX-1 amounted to 100%. At ovine COX-2, the IC50 was above 50000 nM and the inhibition at 50 µM was 38%.
As for `CCCCC/C=C\C/C=C\C/C=C\C/C=C\CCCC(=O)Nc1ccc(NC(=O)Cc2onc(-c3ccc(OC)cc3)c2-c2ccc(OC)cc2)cc1`, the values for the concentration for half-maximal inhibition (IC50) against ovine COX-1 and on ovine COX-2 were 49 nM and above 50000 nM, respectively. Moreover, the inhibition at 50 µM at ovine COX-1 was 66%; at ovine COX-2, 40%.
As for `COc1ccc(-c2noc(CC(=O)NCCCCC(=O)OC[C@H]3OC(O)[C@H](O)[C@@H](O)[C@H]3O)c2-c2ccc(OC)cc2)cc1` (stereo partly drawn) [GALMOF5, 6-O-(5-{2-[3,4-bis(4-methoxyphenyl)isoxazol-5-yl]acetamido}pentanoyl)-D-galactopyranose], the “reduction of the basolateral to apical flux (Papp B→A) in the presence of phloretin” value in the data set on Caco-2 cells is on record as 37%.
The compound `COc1ccc(-c2noc(CC(=O)NCCNC(=O)Cc3onc(-c4ccc(OC)cc4)c3-c3ccc(OC)cc3)c2-c2ccc(OC)cc2)cc1` [Compound 10, N,N′-(Ethane-1,2-di-yl)-bis-(2-[3,4-bis (4-methoxyphenyl)isoxazol-5-yl]acetamide)] displayed a melting point of 145 to 148 °C.
